Assay results as given in patent US8772504B2, “Substituted benzoxazole, benzimidazole, oxazolopyridine and imidazopyridine derivatives as gamma secretase modulators” (Janssen Pharmaceuticals, Inc., priority 2009, dated 2014).

Assays:
Aβtotal [1] = experiment: In vivo efficacy Method 1: brain soluble Aβtotal by ELISA; design: species or system mouse; conditions: Table 4a, single oral dose, overnight fasted animals, sacrificed after 4 h, soluble fraction of brain homogenates
Source text: (§1) To determine whether acute administration of an Aβ42 lowering agent would reduce Aβ42 levels in vivo, non-transgenic rodents, e.g. mice or rats were used. Alternatively, two to three month old Tg2576 mice expressing APP695 containing the “Swedish” variant can be used or a transgenic mouse model developed by Dr. Fred Van Leuven (K.U. Leuven, Belgium) and co-workers, with neuron-specific expression of a clinical mutant of the human amyloid precursor protein [V717I] […] Young transgenic mice have high levels of Aβ in the brain but no detectable Aβ deposition. At approximately 6-8 months of age, the transgenic mice start to display spontaneous, progressive accumulation of β-amyloid (Aβ) in the brain, eventually resulting in amyloid plaques within the subiculum, hippocampus and cortex. Animals treated with the Aβ42 lowering agent were examined and compared to those untreated or treated with vehicle and brain levels of soluble Aβ42 and total Aβ would be quantitated by standard techniques, for example, using ELISA.
(§2) A typical protocol for measuring Aβ42 lowering in vivo is shown but it is only one of many variations that could be used to optimize the levels of detectable Aβ. For example, Aβ42 lowering compounds were formulated in 20% of Captisol® (a sulfobutyl ether of β-cyclodextrin) in water or 20% hydroxypropyl β cyclodextrin. The Aβ42 lowering agents were administered as a single oral dose or by any acceptable route of administration to overnight fasted animals. After 4 h, the animals were sacrificed and Aβ42 levels were analysed.
(§3) Blood was collected by decapitation and exsanguinations in EDTA-treated collection tubes. Blood was centrifuged at 1900 g for 10 minutes (min) at 4° C. and the plasma recovered and flash frozen for later analysis. The brain was removed from the cranium and hindbrain. The cerebellum was removed and the left and right hemisphere were separated. The left hemisphere was stored at −18° C. for quantitative analysis of test compound levels. The right hemisphere was rinsed with phosphate-buffered saline (PBS) buffer and immediately frozen on dry ice and stored at −80° C. until homogenization for biochemical assays.
(§4) All samples were sonicated for 30 seconds on ice at 20% power output (pulse mode). Homogenates were centrifuged at 221.300×g for 50 min. The resulting high speed supernatants were then transferred to fresh tubes and were optionally further purified before the next step. A portion of the supernatant was neutralized with 10% 0.5 M Tris-HCl and this was used to quantify Aβtotal.
The obtained supernatants were purified with Water Oasis HLB reverse phase columns (Waters Corp., Milford, Mass.) to remove non-specific immunoreactive material from the brain lysates prior subsequent Aβ detection. Using a vacuum manifold, all solutions were passed through the columns at a rate of approximately 1 ml per min, so the vacuum pressure was adjusted accordingly throughout the procedure. Columns were preconditioned with 1 ml of 100% MeOH, before equilibration with 1 ml of H2O, Non-neutralized brain lysates were loaded onto the columns. The loaded samples were then washed twice with the first wash performed with 1 ml of 5% MeOH, and the second wash with 1 ml of 30% MeOH. Finally, the Aβ was eluted from the columns and into 100×30 mm glass tubes, with a solution of 90% MeOH with 2% NH4OH. The eluate was then transferred into 1.5 ml tubes and concentrated in a speed-vac concentrator on high heat for about 1.5-2 h at 70° C. The concentrated Aβ was then resuspended in UltraCULTURE General Purpose Serum-Free Medium (Cambrex Corp., Walkersville, Md.) plus Protease Inhibitors added. […]

Aβtotal [2] = experiment: Screening for γ-secretase-modulating activity, Method 1: Aβtotal sandwich ELISA on SKNBE2 cell media; type: cell-based; conditions: SKNBE2 cells carrying APP 695 wild type
Summary of the method: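 SKNBE2 cells expressing wild-type APP 695 were treated with compound for 18 hours. Aβtotal in the medium was measured by sandwich ELISA (6E10 capture, biotinylated 4G8 detection, fluorogenic peroxidase read-out). IC50 came from a 4-parameter fit of % inhibition with top/bottom fixed at 100/0 and Hill slope 1, or as averaged IC50 from % of untreated control.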

Aβ42 [3] = experiment: In vivo efficacy Method 1: brain soluble Aβ42 by ELISA; design: species or system mouse; conditions: Table 4a, single oral dose, overnight fasted animals, sacrificed after 4 h, soluble fraction of brain homogenates
Source text: as §1, §2, §3, §4
The obtained supernatants were purified with Water Oasis HLB reverse phase columns (Waters Corp., Milford, Mass.) to remove non-specific immunoreactive material from the brain lysates prior subsequent Aβ detection. Using a vacuum manifold, all solutions were passed through the columns at a rate of approximately 1 ml per min, so the vacuum pressure was adjusted accordingly throughout the procedure. Columns were preconditioned with 1 ml of 100% MeOH, before equilibration with 1 ml of H2O, Non-neutralized brain lysates were loaded onto the columns. The loaded samples were then washed twice with the first wash performed with 1 ml of 5% MeOH, and the second wash with 1 ml of 30% MeOH. Finally, the Aβ was eluted from the columns and into 100×30 mm glass tubes, with a solution of 90% MeOH with 2% NH4OH. The eluate was then transferred into 1.5 ml tubes and concentrated in a speed-vac concentrator on high heat for about 1.5-2 h at 70° C. The concentrated Aβ was then resuspended in UltraCULTURE General Purpose Serum-Free Medium (Cambrex Corp., Walkersville, Md.) plus Protease Inhibitors added.
To quantify the amount of Aβ42 in the soluble fraction of the brain homogenates, commercially available Enzyme-Linked-Immunosorbent-Assay (ELISA) kits were used (e.g. Innotest® β-Amyloid(1-42), Innogenetics N.V., Ghent, Belgium). The Aβ42 ELISA was performed using the plate provided with the kit only.

Aβ42 [4] = experiment: Screening for γ-secretase-modulating activity, Method 1: Aβ42 sandwich ELISA on SKNBE2 cell media; type: cell-based; conditions: SKNBE2 cells carrying APP 695 wild type
Summary of the method: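 SKNBE2 cells expressing wild-type APP695 were treated with compound for 18 h in Ultraculture/1% glutamine. Secreted Aβ42 was quantified by sandwich ELISA (C-terminal capture, biotinylated 3D6, TMB, 450 nm), with WST-1 used as a toxicity check. IC50 was derived from 4-parameter fits of % inhibition or % of untreated control.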

Aβ42 [5] = experiment: Screening for γ-secretase-modulating activity, Method 2: Aβ42 Alphalisa on SKNBE2 cell supernatant; type: cell-based; conditions: Method 2, Table 3c, SKNBE2 cells carrying APP 695 wild type, overnight incubation
Summary of the method: (§5)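 SKNBE2 cells expressing wild-type APP695, plated at 10^4 cells/well with compound at several concentrations and incubated overnight at 37° C. Aβ42 (C-terminal capture, N-terminal biotinylated detection) and Aβtotal (N-terminal/4G8 pair) measured in supernatant by AlphaLISA. IC50 from 4-parameter fit of percent of compound-free control.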

Aβtotal [6] = experiment: Screening for γ-secretase-modulating activity, Method 2: Aβtotal Alphalisa on SKNBE2 cell supernatant; type: cell-based; conditions: Method 2, Table 3c, SKNBE2 cells carrying APP 695 wild type, overnight incubation
Summary of the method: as §5

Aβ42 [7] = experiment: In vivo efficacy Method 2: brain soluble Aβ42 by ELISA; design: species or system mouse; conditions: Table 4b, single oral dose, overnight fasted non-transgenic animals, sacrificed after 4 h, soluble fraction of brain homogenates
Source text: (§6) To determine whether acute administration of an Aβ42 lowering agent would reduce Aβ42 levels in vivo, non-transgenic rodents, e.g. mice or rats were used. Animals treated with the Aβ42 lowering agent were examined and compared to those untreated or treated with vehicle and brain levels of soluble Aβ42 and total Aβ were quantitated by standard techniques, for example, using ELISA. Treatment periods varied from hours (h) to days and were adjusted based on the results of the Aβ42 lowering once a time course of onset of effect could be established.
as §2, §3
(§7) Mouse brains from non-transgenic animals were resuspended in 8 volumes of 0.4% DEA (diethylamine)/50 mM NaCl containing protease inhibitors (Roche-11873580001 or 04693159001) per gram of tissue, e.g. for 0.158 g brain, add 1.264 ml of 0.4% DEA. All samples were homogenized in the FastPrep-24 system (MP Biomedicals) using lysing matrix D (MPBio #6913-100) at 6 m/s for 20 seconds. Homogenates were centrifuged at 221.300×g for 50 min. The resulting high speed supernatants were then transferred to fresh eppendorf tubes. Nine parts of supernatant were neutralized with 1 part 0.5 M Tris-HCl pH 6.8 and used to quantify Aβtotal and Aβ42.
(§8) To quantify the amount of Aβtotal and Aβ42 in the soluble fraction of the brain homogenates, Enzyme-Linked-Immunosorbent-Assays were used . Briefly, the standards (a dilution of synthetic Aβ1-40 and Aβ1-42, Bachem) were prepared in 1.5 ml Eppendorf tube in Ultraculture, with final concentrations ranging from 10000 to 0.3 pg/ml. The samples and standards were co-incubated with HRPO-labelled N-terminal antibody for Aβ42 detection and with the biotinylated mid-domain antibody 4G8 for Aβtotal detection. 50 μl of conjugate/sample or conjugate/standards mixtures were then added to the antibody-coated plate (the capture antibodies selectively recognize the C-terminal end of Aβ42, antibody JRF/cAβ42/26, for Aβ42 detection and the N-terminus of Aβ, antibody JRF/rAβ/2, for Aβtotal detection). The plate was allowed to incubate overnight at 4° C. in order to allow formation of the antibody-amyloid complex. Following this incubation and subsequent wash steps the ELISA for Aβ42 quantification was finished by addition of Quanta Blu fluorogenic peroxidase substrate according to the manufacturer's instructions (Pierce Corp., Rockford, Ill.). A reading was performed after 10 to 15 min (excitation 320/emission 420).
In this model at least 20% Aβ42 lowering compared to untreated animals would be advantageous.

Aβtotal [8] = experiment: In vivo efficacy Method 2: brain soluble Aβtotal by ELISA; design: species or system mouse; conditions: Table 4b, single oral dose, overnight fasted non-transgenic animals, sacrificed after 4 h, soluble fraction of brain homogenates
Source text: as §6, §2, §3, §7, §8
For Aβtotal detection, a Streptavidine-Peroxidase-Conjugate was added, followed 60 min later by an additional wash step and addition of Quanta Blu fluorogenic peroxidase substrate according to the manufacturer's instructions (Pierce Corp., Rockford, Ill.). A reading was performed after 10 to 15 min (excitation 320 nm/emission 420 nm).

[9] = Table 3a, 18 hours, XLfit, top/bottom fixed to 100 and 0, hill slope 1
[10] = Table 3b, non-linear regression of % of control, averaged IC50 values

| IC50 (Aβtotal [2]; [9]) | IC50 (Aβtotal [2]; [10]) | IC50 (Aβ42 [4]; [9]) | IC50 (Aβ42 [4]; [10]) | IC50 (Aβ42 [5]; Homo sapiens) | IC50 (Aβtotal [6]; Homo sapiens) | IC50 (Aβ42 [5]) | IC50 (Aβtotal [6]) | Compound | Aβtotal (% Ctrl) _Mean (Aβtotal [1]) | Aβ42 (% Ctrl) _Mean (Aβ42 [3]) | Aβ42 (% Ctrl) _Mean (Aβ42 [7]) | Aβtotal (% Ctrl) _Mean (Aβtotal [8]) |
| --- | --- | --- | --- | --- | --- | --- | --- | --- | --- | --- | --- | --- |
| > 3000 nM | > 10000 nM | 435 nM | 398 nM |  |  |  |  | Cc1ncnn1-c1ccc(Nc2nccc3c2nc(-c2ccc(F)cc2)n3C)cc1F [Compound 97] | 96 % Ctrl | 96 % Ctrl |  |  |
| > 3000 nM | > 3000 nM | 50 nM | 44 nM |  |  |  |  | Cc1cn(-c2ccc(Nc3nccc4c3nc(-c3ccc(F)cc3F)n4C)cc2F)cn1 [Compound 104] | 110 % Ctrl | 65 % Ctrl |  |  |
|  |  |  |  | 4 nM | 6170 nM |  |  | COc1nc(Nc2cc(F)cc3c2nc(-c2ccc(F)cc2)n3C(C)C)ccc1-n1cnc(C)c1 [Compound 106] | 104 % Ctrl | 87 % Ctrl |  |  |
|  |  |  |  |  |  | 5 nM | 8130 nM | COc1cc(-c2nc3c(Nc4ccc(-n5cnc(C)c5)c(OC)n4)cccc3n2C(C)C)ccc1Cl [Compound 131] | 84 % Ctrl | 51 % Ctrl |  |  |
|  |  |  |  |  |  | 9 nM | > 10000 nM | COc1cc(-c2nc3c(Nc4ccc(-n5cnc(C)c5)c(F)c4)nc(C)cc3n2C)ccc1Cl [Compound 136] |  |  | 77 % Ctrl | 104 % Ctrl |
|  |  |  |  |  |  | 15 nM | 9330 nM | Cc1cn(-c2ccc(Nc3nc(C)cc4c3nc(-c3cccc(N(C)C)c3)n4C)cc2F)cn1 [Compound 142] |  |  | 73 % Ctrl | 98 % Ctrl |
|  |  |  |  |  |  | 5 nM | > 10000 nM | COc1cc(Nc2ccc(-n3cnc(C)c3)c(OC)n2)c2nc(-c3ccc(F)cc3)n(C)c2c1 [Compound 160] |  |  | 84 % Ctrl | 78 % Ctrl |
|  |  |  |  |  |  | 5 nM | 5620 nM | COc1nc(Nc2cccc3c2nc(-c2ccc(F)cc2)n3C(C)C)ccc1-n1cnc(C)n1 [Compound 162] |  |  | 79 % Ctrl | 97 % Ctrl |
|  |  |  |  |  |  | 6 nM | 3720 nM | COc1nc(Nc2cccc3c2nc(-c2cc(F)cc(F)c2)n3C)ccc1-n1cnc(C)c1.Cl.Cl.O [Compound 165] |  |  | 44 % Ctrl | 85 % Ctrl |
|  |  |  |  |  |  | 7 nM | 5250 nM | COc1nc(Nc2cccc3c2nc(-c2cccc(C(F)(F)F)c2)n3C)ccc1-n1cnc(C)c1 [Compound 167] |  |  | 46 % Ctrl | 84 % Ctrl |
|  |  |  |  | 38 nM | 9550 nM |  |  | COc1nc(Nc2cccc3c2nc(-c2cccc(NC(C)=O)c2)n3C)ccc1-n1cnc(C)c1 [Compound 174] |  |  | 90 % Ctrl | 104 % Ctrl |
|  |  |  |  | 13 nM | > 10000 nM |  |  | COc1cc(-c2nc3c(Nc4ccc(-n5cnc(C)c5)c(OC)n4)cccc3n2C)ccc1F [Compound 184] |  |  | 31 % Ctrl | 88 % Ctrl |
|  |  |  |  |  |  | 12 nM | 8320 nM | COc1cc(OC)cc(-c2nc3c(Nc4ccc(-n5cnc(C)c5)c(OC)n4)cccc3n2C)c1.Cl.Cl.O [Compound 186] |  |  | 38 % Ctrl | 88 % Ctrl |
|  |  |  |  | 36 nM | 7240 nM |  |  | COc1nc(Nc2cccc3c2nc(-c2cc(C(F)(F)F)ccc2F)n3C)ccc1-n1cnc(C)c1 [Compound 187] |  |  | 75 % Ctrl | 96 % Ctrl |
|  |  |  |  |  |  | 17 nM | 8320 nM | COc1nc(Nc2cccc3c2nc(-c2cccc(OC(F)(F)F)c2)n3C)ccc1-n1cnc(C)c1 [Compound 189] |  |  | 48 % Ctrl | 95 % Ctrl |
